The supplement of paper PMC13207355

What was measured:
Settings in all cases: exposure time: 72 h
E13 [1] = patient-derived glioblastoma stem cells of classical subtype; experiment: surviving fraction (nuclei count normalised to DMSO); higher = more cells surviving (less toxic)
E21 [2] = patient-derived glioblastoma stem cells of mesenchymal subtype; experiment: as above
E28 [3] = patient-derived glioblastoma stem cells of classical subtype; experiment: as above
E31 [4] = patient-derived glioblastoma stem cells of proneural subtype; experiment: as above
E34 [5] = patient-derived glioblastoma stem cells of proneural subtype; experiment: as above
E57 [6] = patient-derived glioblastoma stem cells of mesenchymal subtype; experiment: as above
FT3469 [7] = normal neural stem cell line; experiment: as above
E13 [8] = experiment: phenotypic distance (Euclidean, principal components) from DMSO controls (arbitrary units); higher = stronger morphological change
E21 [9] = experiment: as above
E28 [10] = experiment: as above
E31 [11] = experiment: as above
E34 [12] = experiment: as above
E57 [13] = experiment: as above
FT3469 [14] = experiment: as above
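Wherever phenotypic distance (Euclidean, principal components) from DMSO controls is given: cell Painting imaging in 384-well plates, CellProfiler features reduced to at least 20 principal components, Euclidean distance versus same-plate DMSO vehicle wells (0.1% v/v), median over six images per well.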
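Wherever surviving fraction (nuclei count normalised to DMSO) is given: nuclei counted by high-content imaging of Hoechst-stained cells in laminin-coated 384-well plates, relative to 0.1% DMSO vehicle wells, with staurosporine as cell-death control.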

## NCc1ccccc1CC(=O)N[C@@H]1C(=O)N2C(C(=O)O)=C(CSc3nnnn3CC(=O)O)CS[C@H]12 [Ceforanide]
E13 [1]; 4.1 nM
  surviving fraction: 0.857
E13 [1]; 12.3 nM
  surviving fraction: 0.899
E13 [1]; 37 nM
  surviving fraction: 0.892
E13 [1]; 111.1 nM
  surviving fraction: 0.955
E13 [1]; 333.3 nM
  surviving fraction: 0.967
E13 [1]; 1000 nM
  surviving fraction: 0.991
E13 [1]; 3000 nM
  surviving fraction: 0.821
E21 [2]; 4.1 nM
  surviving fraction: 0.96
E21 [2]; 12.3 nM
  surviving fraction: 1
E21 [2]; 37 nM
  surviving fraction: 1
E21 [2]; 111.1 nM
  surviving fraction: 0.945
E21 [2]; 333.3 nM
  surviving fraction: 0.927
E21 [2]; 1000 nM
  surviving fraction: 0.94
E21 [2]; 3000 nM
  surviving fraction: 0.913
E28 [3]; 4.1 nM
  surviving fraction: 1.01
E28 [3]; 12.3 nM
  surviving fraction: 0.94
E28 [3]; 37 nM
  surviving fraction: 1.19
E28 [3]; 111.1 nM
  surviving fraction: 0.907
E28 [3]; 333.3 nM
  surviving fraction: 0.952
E28 [3]; 1000 nM
  surviving fraction: 0.963
E28 [3]; 3000 nM
  surviving fraction: 0.899
E31 [4]; 4.1 nM
  surviving fraction: 0.969
E31 [4]; 12.3 nM
  surviving fraction: 0.993
E31 [4]; 37 nM
  surviving fraction: 0.944
E31 [4]; 111.1 nM
  surviving fraction: 1.06
E31 [4]; 333.3 nM
  surviving fraction: 0.801
E31 [4]; 1000 nM
  surviving fraction: 0.895
E31 [4]; 3000 nM
  surviving fraction: 1.03
E34 [5]; 4.1 nM
  surviving fraction: 1.07
E34 [5]; 12.3 nM
  surviving fraction: 1.01
E34 [5]; 37 nM
  surviving fraction: 1.2
E34 [5]; 111.1 nM
  surviving fraction: 0.873
E34 [5]; 333.3 nM
  surviving fraction: 1.1
E34 [5]; 1000 nM
  surviving fraction: 0.901
E34 [5]; 3000 nM
  surviving fraction: 0.86
E57 [6]; 4.1 nM
  surviving fraction: 0.871
E57 [6]; 12.3 nM
  surviving fraction: 0.985
E57 [6]; 37 nM
  surviving fraction: 0.982
E57 [6]; 111.1 nM
  surviving fraction: 0.995
E57 [6]; 333.3 nM
  surviving fraction: 1
E57 [6]; 1000 nM
  surviving fraction: 0.926
E57 [6]; 3000 nM
  surviving fraction: 0.897
FT3469 [7]; 4.1 nM
  surviving fraction: 0.899
FT3469 [7]; 12.3 nM
  surviving fraction: 0.944
FT3469 [7]; 37 nM
  surviving fraction: 0.806
FT3469 [7]; 111.1 nM
  surviving fraction: 1.05
FT3469 [7]; 333.3 nM
  surviving fraction: 0.931
FT3469 [7]; 1000 nM
  surviving fraction: 1.08
FT3469 [7]; 3000 nM
  surviving fraction: 0.785
E13 [8]; 4.1 nM
  phenotypic distance: 0.868
E13 [8]; 12.3 nM
  phenotypic distance: 0.834
E13 [8]; 37 nM
  phenotypic distance: 0.565
E13 [8]; 111.1 nM
  phenotypic distance: 2.99
E13 [8]; 333.3 nM
  phenotypic distance: 0.49
E13 [8]; 1000 nM
  phenotypic distance: 0.481
E13 [8]; 3000 nM
  phenotypic distance: 1.06
E21 [9]; 4.1 nM
  phenotypic distance: 0.452
E21 [9]; 12.3 nM
  phenotypic distance: 0.464
E21 [9]; 37 nM
  phenotypic distance: 0.533
E21 [9]; 111.1 nM
  phenotypic distance: 0.73
E21 [9]; 333.3 nM
  phenotypic distance: 0.545
E21 [9]; 1000 nM
  phenotypic distance: 0.643
E21 [9]; 3000 nM
  phenotypic distance: 0.896
E28 [10]; 4.1 nM
  phenotypic distance: 0.755
E28 [10]; 12.3 nM
  phenotypic distance: 0.829
E28 [10]; 37 nM
  phenotypic distance: 0.872
E28 [10]; 111.1 nM
  phenotypic distance: 0.701
E28 [10]; 333.3 nM
  phenotypic distance: 0.858
E28 [10]; 1000 nM
  phenotypic distance: 1.54
E28 [10]; 3000 nM
  phenotypic distance: 1.07
E31 [11]; 4.1 nM
  phenotypic distance: 0.821
E31 [11]; 12.3 nM
  phenotypic distance: 0.599
E31 [11]; 37 nM
  phenotypic distance: 0.687
E31 [11]; 111.1 nM
  phenotypic distance: 0.68
E31 [11]; 333.3 nM
  phenotypic distance: 0.855
E31 [11]; 1000 nM
  phenotypic distance: 0.963
E31 [11]; 3000 nM
  phenotypic distance: 0.779
E34 [12]; 4.1 nM
  phenotypic distance: 0.618
E34 [12]; 12.3 nM
  phenotypic distance: 0.456
E34 [12]; 37 nM
  phenotypic distance: 0.886
E34 [12]; 111.1 nM
  phenotypic distance: 0.834
E34 [12]; 333.3 nM
  phenotypic distance: 0.882
E34 [12]; 1000 nM
  phenotypic distance: 0.522
E34 [12]; 3000 nM
  phenotypic distance: 0.877
E57 [13]; 4.1 nM
  phenotypic distance: 0.735
E57 [13]; 12.3 nM
  phenotypic distance: 0.47
E57 [13]; 37 nM
  phenotypic distance: 0.604
E57 [13]; 111.1 nM
  phenotypic distance: 0.425
E57 [13]; 333.3 nM
  phenotypic distance: 0.594
E57 [13]; 1000 nM
  phenotypic distance: 0.792
E57 [13]; 3000 nM
  phenotypic distance: 0.948
FT3469 [14]; 4.1 nM
  phenotypic distance: 0.788
FT3469 [14]; 12.3 nM
  phenotypic distance: 0.666
FT3469 [14]; 37 nM
  phenotypic distance: 0.745
FT3469 [14]; 111.1 nM
  phenotypic distance: 0.803
FT3469 [14]; 333.3 nM
  phenotypic distance: 0.916
FT3469 [14]; 1000 nM
  phenotypic distance: 0.851
FT3469 [14]; 3000 nM
  phenotypic distance: 1.28
